Data: patent US10722528B2, “Compositions and methods for inhibiting metastasis” (Augusta University Research Institute, Inc., priority 2018, dated 2020)

Columns and labels:
[1] = tested on: EMT6 cells co-cultured with mMDSCs; assay: EMT6 cells co-cultured with mMDSCs and NOS2 inhibitor 1400W (qPCR, Western blot); type: cell-based, mouse
Experimental: (§1) FIGS. 5A-5D are bar graphs showing expression of IL6 (FIG. 5A), IL1A (FIG. 5B), TGFB (FIG. 5C), and Vimentin (FIG. 5D) in EMT6 cells (white bars), EMT6 cells+0.5 mM DPTA (gray bars), and EMT6 cells+2.5 mM DPTA (black bars). FIG. 5E-5H are bar graphs showing expression of IL6 (FIG. 5E), IL1A (FIG. 5F), TGFB (FIG. 5G), and Vimentin (FIG. 5H) in EMT6 cells (white bars), EMT6 cells+mMDSCs (gray bars), and EMT6 cells+mMDSCs/1400W (black bar). FIG. 5I is a representative Western blot showing pSTAT3, STAT3, pSTAT1, STAT1, Vimentin, Twist, and actin expression in untreated EMT6 cell, or EMT6 cells treated with 0.5 mM or 2.5 mM DPTA, mMDSCs, or mMDSCs+1400W.
(§2) For RT-PCR analyses, KiCqStart SYBR Green predesigned primers (Sigma) were used for the following genes: […]
(§3) The relative fold change was measured by 2-ΔΔCt formula compared to the control cells. Means and differences of the means with 95% confidence intervals were obtained using GraphPad Prism (GraphPad Software Inc.). Two-tailed Student's t-test was used for unpaired analysis comparing average expression between conditions. P values<0.05 were considered statistically significant.

[2] = tested on: EMT6 cells
Experimental: as §1, §2, §3

[3] = tested on: MDSC-related genes in bone marrow cells; assay: Expression of MDSC-related genes in bone marrow cells treated with GCSF and compound; type: cell-based, mouse
From the text: FIG. 13A is a bar graph showing Ly6c+Ly6g+CD11b+gMDSCs differentiation in vitro in bone marrow cells treated with GCSF and the lead NCI compounds identified by computational screen against S100A8/A9 (calprotectin). FIGS. 13B-13K are representative flow cytometry plots showing the expression of CD11b and Ly6C in bone marrow cells treated with compounds 4, 10, 13, and 15. FIGS. 13L-13R are bar graphs showing the expression of MDSC-related genes (S100A8, FIG. 13L; S100A9, FIG. 13M; GCSF, FIG. 13N; IL1A, FIG. 13O; NOS2, FIG. 13P; CYB1, FIG. 13Q; and IL4R, FIG. 13R) in bone marrow cells treated with GCSF (black bars), GCSF+#4 (dark gray bars), GCSF+#10 (light gray bars), or untreated (white bars).
P values<0.05 were considered statistically significant.

[4] = tested on: gMDSC differentiation in bone marrow cells; assay: In vitro screening of gMDSC differentiation in bone marrow cells (GM-CSF/G-CSF, flow cytometry); type: cell-based, mouse; conditions: GM-CSF, 3 days, flow cytometry (Ly6c+Ly6g+CD11b+)
Experimental: BALB/c mice were euthanized by CO2 asphyxiation. The femur bones were carefully resected under sterile conditions, cleaned to remove the attached muscle/tissue, and cleaned with 70% ethanol. The bones were then transferred on to a sterile Petri dish with culture medium Roswell Park Memorial Institute (RPMI)-1640. Both ends of femurs were carefully trimmed using sterile, sharp scissors to expose the interior marrow shaft. The contents of marrow were flushed with 2-4 ml of culture medium (RPMI-1640 supplemented with 10% FBS) using 1-ml insulin syringe with a 29G×½ needle. Later, the bone marrow was flushed out onto a 70 μm nylon cell strainer placed in a 50 ml Falcon conical tube (The bones should appear white once all the marrow has been expelled out completely). The collected BM cell suspension was further diluted with 20 ml of phosphate buffer saline (PBS), and the cell suspension was centrifuged at 1,000 rpm […]. The supernatant and the cell pellet were collected using red blood cell (RBC) lysis buffer and incubated for 5 minutes. 5-10 mL of PBS was added, and the solution was centrifuged at 1,000 rpm for 5 minutes. The supernatant was discarded and the cell pellet was washed with PBS, and re-centrifuged at 1,000 rpm for 5 minutes. The cells were re-suspended with RPMI medium containing 10% FBS and used for assays or culture.
Computational screening of certain select NCI chemical library was performed again the crystal structure of calprotectin. 40 lead compounds were identified with potential to bind to calprotectin and suppress gMDSC differentiation. In vitro screening using the 40 lead compounds was performed. Bone marrow cells were counted using hemocytometer or Beckman Z2 coulter counter and suspended in culture medium (RPMI 1640+10% FBS+1% penicillin/streptomycin) to achieve a final cell density of 2×10^6 BM cells/well. T20 ng/mL of recombinant mouse GM-CSF (Granulocyte Macrophage—Colony Stimulating Factor Protein) was added followed by 50 ng/mL G-CSF or individual selected drug. […]

[5] = tested on: 4T1 tumor; assay: Metastatic 4T1-injected mice treated with drug #10 (bioluminescence imaging, MDSC infiltration); type: in vivo, mouse
From the text: FIG. 14A-14D are bioluminescence images of metastatic 4T1-injected mice untreated or treated with drug #10. FIG. 14E-14H are bar graphs showing the extent of mMDSC infiltration in the primary tumor (FIG. 14H) and the BM (FIG. 14E), spleen (FIG. 14F), and lung (FIG. 14G) of metastatic 4T1-injected mice untreated (black bars) or treated with drug #10 (gray bars). FIG. 14I-14L are bar graphs showing the extent of gMDSC infiltration in the primary tumor (FIG. 14L) and the BM (FIG. 14I), spleen (FIG. 14J), and lung (FIG. 14K) of metastatic 4T1-injected mice untreated (black bars) or treated with drug #10 (gray bars).
Luciferase expressing 4T1 or EMT6 murine breast cancer cells (50,000 cells per mice) were orthotopically implanted into the fat pads of 5-week-old BALB/c mice. (AT-3 cells in C57BL/J6 mice) and these mice were imaged utilizing the Caliper IVIS imaging systems. To analyse MDSCs, tumor-bearing mice were sacrificed every week and single-cell suspensions were prepared from bone marrows, spleens, lungs and tumor tissues. Bone marrow cells were obtained by flushing bones with PBS using a 28G 1/2 syringe. […]
These cells were labeled with fluorescence-conjugated Ly6C (#128015-dilution 1/400), Ly6G (#127605-dilution 1/100) and CD11b (#101208-Dilution 1/200) antibodies (Biolegend) and analyzed on a FACS canto flow cytometer (BD Biosciences).

[6] = tested on: EMT6-Luc tumor; assay: In vivo gMDSC induction: EMT6-Luc tumor model in BALB/c mice injected with recombinant protein; parameters: species or system mouse; conditions: for tumor cell killing activity of T cells from treated mice (annexin V+ cells): compared to control treated mice; for levels of caspase 3 mediated apoptosis: treated mice versus saline
Experimental: (§4) In vivo gMDSC induction: EMT6 tumor model was selected as platform to examine the role of the proteins in regulation gMDSCs and the resultant metastatic cascade. EMT6-Luc cells were implanted into the mammary fat pads of BALB/c mice (purchased from Charles Rivers at NCI). The mice were then injected (via tail vein) either with saline (control), recombinant S100A9 or Calprotectin (100 ng/mouse) every alternate day for three weeks.
as §4, with “EMT6” for “In vivo gMDSC induction: EMT6”

[7] = tested on: T cell proliferation; assay: In vitro suppression: bone marrow cells treated with recombinant protein plus GM-CSF, then co-incubated with activated CFSE labeled T cells; type: cell-based, mouse; conditions: 7 days, then 3 days with activated CFSE labeled T cells
Experimental: (§5) In vitro suppression: Multigrams of recombinant Calprotectin, S100A8 and S100A9 proteins were isolated, purified and confirmed for their activity with commercially available proteins. Bone marrow cells were treated with recombinant S100A8 (A8), S100A(9) or Calprotectin (CALP) in presence of GM-CSF (Granulocyte Macrophage-Colony Stimulating Factor Protein) in vitro for 7 days for gMDSC differentiation. The cells were then co-mixed and incubated 3 more days with activated CFSE labeled T cells.
as §5, with “Multigrams” for “In vitro suppression: Multigrams”, “recombinant S10A8” for “recombinant S100A8”, “(Granulocyte Macrophage—Colony” for “(Granulocyte Macrophage-Colony”

[8] = 100 ng/mouse via tail vein every alternate day for three weeks

CC(=N)NCc1cccc(CN)c1 [1400 W]
activation of pStat1 and pStat3 pathways and EMT markers vimentin and twist (Western blot) [1]: suppressed the activation of the latter pathways and EMT markers | mMDSC-induced transcription of IL1A, IL6, TGFB1 and VIM (qPCR) [1]: suppress the mMDSC-induced transcription of these genes

NCCCN(CCCN)/[N+]([O-])=N/O [DPTA]
expression of IL1A, IL6, TGFB1 and VIM (qPCR) ([2]; 0.5 mM and 2.5 mM DPTA): induced the expressions of indicated genes | activation of pStat1 and pStat3 signaling pathways and protein levels of EMT markers vimentin and twist (Western blot) ([2]; 0.5 mM or 2.5 mM DPTA): induced the activation of pStat1 and pStat3 signaling pathways and protein levels of EMT markers

O=C1c2cccc(Oc3ccccc3)c2C(=O)c2cccc(Oc3ccccc3)c21 [compound 4, 1,5-diphenoxyanthracen-9-10-dione]
expression of MDSC-related genes S100A8, S100S9, GCSF, IL1A, NOS2, CYBB1, and IL4R [3]: reduced the expression | inhibition of gMDSC differentiation [4]: significant inhibition of gMDSC differentiation

CC12CCC3C(CCC4Cc5[nH]c6ccccc6c5CC43C)C1CCC2O (stereo not shown) [compound 10, 12a,14a-dimethyl-1,2,3,3a,3b,4,5,5a,6,7,12,12a,12b,13,14,14a-hexadecahydrocyclopenta[5,6]naphtho[2,1-b]carbazol-1-ol]
expression of MDSC-related genes S100A8, S100S9, GCSF, IL1A, NOS2, CYBB1, and IL4R [3]: reduced the expression | tumor growth and metastasis ([5]; bioluminescence images): suppresses tumor growth and metastasis | gMDSC infiltration into the tumor and distant organ sites ([5]; primary tumor, BM, spleen, lung): reduce gMDSC infiltration | inhibition of gMDSC differentiation [4]: significant inhibition of gMDSC differentiation

O=[N+]([O-])C1C(c2ccccc2)C12c1ccccc1-c1ccccc12 (stereo not shown) [compound 27]
inhibition of gMDSC differentiation [4]: significant inhibition of gMDSC differentiation

Calprotectin: recombinant complex of the mammalian proteins S100A8 and S100A9
CD8+ T cells [6, 8]: increase in CD8+ T cells | primary tumor growth and spontaneous metastasis [6, 8]: enhanced primary tumor growth and spontaneous metastasis to the lungs and liver | tumor cell killing activity of T cells from treated mice (annexin V+ cells) [6]: significantly suppressed the tumor cell killing activity | levels of caspase 3 mediated apoptosis [6]: reduced | suppression of T cell proliferation by protein treated gMDSCs [7]: suppressed T cell proliferation more efficiently compared to S100A9

S100A9: recombinant S100A9 protein, subunit of calprotectin
tumor cell killing activity of T cells from treated mice (annexin V+ cells) [6]: moderate activity | levels of caspase 3 mediated apoptosis [6]: reduced

B1: S100A8: recombinant S100A8 protein, subunit of calprotectin (protein, UniProt P05109 1-93, looked up)
Protein S100-A8: MLTELEKALNSIIDVYHKYSLIKGNFHAVYRDDLKKLLETECPQYIRKKGADVWFKELDINTDGAVNFQEFLILVIKMGVAAHKKSHEESHKE
suppression of T cell proliferation by protein treated gMDSCs [7]: no significant effect
